Experimental data as given in patent publication US5760036A, “Aminediol protease inhibitors” (E. R. Squibb & Sons, Inc., priority 1995, dated 1998).

Legend:
HIV protease = target: T1, HIV protease (Human immunodeficiency virus type 1 group M subtype B, UniProt P04585); assay: HIV Protease Assay; type: biochemical; conditions: 4% DMSO, 450 μM substrate, pH 5.5, 30 minutes at 37° C., RP-HPLC; for inhibition at 10 µM: pH 5.5, 10 μM inhibitor, read-out: HIV Protease % Inhibition at 10 μM
T1 construct: and purified protease
How it was run: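 Purified protease cleaved 450 μM octapeptide substrate in 50 mM sodium acetate pH 5.5 with 100 μg/ml BSA for 30 minutes at 37° C; product analyzed by reverse-phase HPLC at UV220 after H3PO4 quench. Inhibitors tested at final 10 μM with 4% DMSO.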

[1] = system: RF strain of HIV (CEM-SS cells); assay: Cell Culture Anti-HIV Activity (cell viability, formazan); type: cell-based; conditions: Human immunodeficiency virus 1, CEM-SS, 144 h, CEM-SS cells, RF strain of HIV, multiplicity of infection 0.04, 6 days at 37° C., 450 nm; read-out: HIV (CEM Cells) IC50
How it was run: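 CEM-SS cells (5000/well) infected with HIV RF at MOI 0.04, exposed to half-log serial compound dilutions, incubated 6 days at 37° C. Viability read by tetrazolium reduction to formazan, absorbance 450 nm. IC50 is the concentration raising formazan in infected cells to 50% of uninfected, drug-free cells.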

| Compound | inhibition at 10 µM (HIV protease) | HIV Protease % Inhibition at 10 μM (HIV protease; 10 μM inhibitor) | IC50 [1] |
| --- | --- | --- | --- |
| CC(C)(C)OC(=O)N[C@@H](Cc1ccccc1)[C@H](O)CNC[C@@H](O)[C@H](Cc1ccc(OCCO)cc1)NC(=O)OC(C)(C)C [Compound 209, [1S-[1R*,2S*(2S*,3R*)]]-[3[[-3-[[(1,1-Dimethylethoxy)carbonyl]amino]-2-hydroxy-4-[4-(2-hydroxyethoxy)phenyl]butyl]amino]-2-hydroxy-1-(phenylmethyl)propyl]-carbamic acid, 1,1-dimethylethyl ester] | 99% | – | 30 nM |
| CC(C)(C)OC(=O)N[C@@H](Cc1ccccc1)[C@H](O)CNC[C@@H](O)[C@H](Cc1ccc(O)cc1)NC(=O)OC(C)(C)CO [Compound 233, [1S-[1R*,2S*(2S*,3R*)]]-[3-[[3-[[(1,1-Dimethylethoxy)carbonyl]amino]-2-hydroxy-4-(4-hydroxyphenyl)butyl]amino]-2-hydroxy-1-(phenylmethyl)propyl]carbamic acid,2-hydroxy-1,1-dimethylethyl ester] | 100% | – | 1000 nM |
| CC(C)(C)OC(=O)N[C@@H](Cc1ccccc1)[C@H](O)CNC[C@@H](O)[C@H](Cc1ccccc1)NC(=O)OC(C)(C)[C@@H](O)CO [Compound 227, [1S-(1R*,2S*),(R*)]-[Iminobis[2-hydroxy-1-(phenylmethyl)-3,1-propanediyl]]biscarbamic acid, 2,3-dihydroxy-1,1-dimethylpropyl 1,1-dimethylethyl ester] | 99% | – | 900 nM |
| CC(C)(C)OC(=O)N[C@@H](Cc1ccccc1)[C@H](O)CNC[C@@H](O)[C@H](Cc1ccccc1)NC(=O)OC(C)(C)CCO [Compound 169, [1S-(1R*,2S*)]-Iminobis[2-hydroxy-1-(phenylmethyl)-3,1-propanediyl]]biscarbamic acid, 1,1-dimethylethyl-3-hydroxy-1,1-dimethylpropyl ester] | 97% | – | 200 nM |

The next lines start with results.

| inhibition at 10 µM (HIV protease) | HIV Protease % Inhibition at 10 μM (HIV protease; 10 μM inhibitor) | Compound | IC50 [1] |
| --- | --- | --- | --- |
| 99% | – | CC(C)(C)OC(=O)N[C@@H](Cc1ccccc1)[C@H](O)CNC[C@@H](O)[C@H](Cc1ccccc1)NC(=O)[C@H](CCO)NC(=O)OCc1ccccc1 (relative stereo) [Compound 264, [1R*2S*(2S*,3R*)]-N-[3-[[3-[[(1,1-Dimethylethoxy)carbonyl]amino]-2-hydroxy-4-phenylbutyl]amino]-2-hydroxy-l-(phenylmethyl)propyl]-N^2-[(phenylmethoxy)carbonyl]-L-homoserinamide] | 160 nM |
| 100% | – | CC(C)[C@H](NC(=O)OCc1nc2ccccc2n1C)C(=O)N[C@@H](Cc1ccccc1)[C@H](O)CNC[C@@H](O)[C@H](Cc1ccccc1)NC(=O)OC(C)(C)C [Compound 170, [S-[1R*,2S*(2S*,3R*)]-N-[3-[[3-[[(1 l-Dimethylethoxy)carbonyl]amino]-2-hydroxy-4-phenylbutyl]amino]-2-hydroxy-1-(phenylmethyl)-propyl]-N^2-[[(1-methyl-1H-benzimidazol-2-yl)-methoxy]carbonyl]-L-valinamide] | 100 nM |
| 90% | – | CC(C)(C)OC(=O)N[C@@H](Cc1ccccc1)[C@H](O)CNC[C@@H](O)[C@H](Cc1c[nH]c2ccccc12)NC(=O)OCc1ccccc1 [Compound 22, [1S-[1R*,2S*(2S*,3R*)]]-[3-[[3-[[(1,1-Dimethylethoxy)carbonyl]amino]-2-hydroxy-4-ehenylbutyl]amino]-2-hydroxy-1-[(1H-indol-3-yl)methyl]propyl]carbamic acid, phenylmethyl ester] | > 1800 nM |
| – | 95% | CC(C)(C)OC(=O)N[C@@H](Cc1ccccc1)[C@H](O)CNC[C@@H](O)[C@H](Cc1ccccc1)NC(=O)C(CCO)C(C)(C)C (single isomer, unassigned; isomer a) [Compound 312, [1S-[1R*, 2S* (2S*, 3R*)]]-[3-[[3-[[2-(1,1-Dimethylethyl)-4-hydroxy-1-oxobutyl]amino]-2-hydroxy-4-phenylbutyl]amino]-2-hydroxy-1-(phenylmethyl)propyl]carbamic acid, 1,1-dimethylethyl ester, isomer A] | 3500 nM |
